Experimental data: PubChem BioAssay (NCI)
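Test compounds were applied to cells in 96-well plates for 48 hours at 5 doses. GI50: concentration for 50% inhibition of growth. The concentration for full growth arrest is given as TGI.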

Legend:
Assay in all cases: inhibition of tumour cell growth, NCI panel, 48 h
HCT-15 colon = test system: HCT-15 colon
NCI-H522 lung = test system: NCI-H522 lung
SF-295 CNS = test system: SF-295 CNS
T-47D breast = test system: T-47D breast
MOLT-4 leukemia = test system: MOLT-4 leukemia

Structure (SMILES) | TGI (HCT-15 colon) [µM] | TGI (NCI-H522 lung) [µM] | TGI (SF-295 CNS) [µM] | TGI (T-47D breast) [µM] | TGI (MOLT-4 leukemia) [µM] | GI50 (NCI-H522 lung) [µM] | GI50 (T-47D breast) [µM] | GI50 (MOLT-4 leukemia) [µM]
COP(=O)(OC)C(O)/C=C/c1ccco1 (stereo not given) | > 100 | > 100 | > 100 | > 100 | > 100 |  |  | 
O=c1c[n+](-c2ccccc2)[nH]o1 | > 100 |  | > 100 | > 100 |  |  |  | 
COc1ccc(-c2oc3cc(OC)c(OC)c(OC)c3c(=O)c2OC)cc1OC | > 100 | > 100 | > 100 | > 100 | > 100 |  |  | 
O=C1OC2c3ccccc3C(=O)C2(c2ccccc2)N1c1ccccc1 (stereo not given) | > 200 | > 200 | > 200 | > 200 | > 200 |  |  | 
C=CCOC(=O)CCCCCCCCCCCCCCCOC(=O)c1c(CCC[C@@H](C)O[Si](C)(C)C(C)(C)C)nc(=O)n2c1CC[C@H]2CC1(CC/C=C\[C@H](CC)O[Si](C(C)C)(C(C)C)C(C)C)OCCO1 | > 100 | > 100 | > 100 | > 100 |  |  |  | 
N#CC(C#N)=Cc1ccc(C=C2SC3=C(SCCS3)S2)s1 | > 100 | > 100 | > 100 | > 100 | > 100 |  |  | 
COc1cc(/C=C/c2sc3ccccc3[n+]2C)ccc1N(C)C | > 100 | 15.8 | > 100 | 10.8 | 30 | 0.467 | 1.36 | 8.06
COCC(=O)OC1CCn2c1nc1c2C(=O)C(C)=C(NC(C)=O)C1=N (stereo not given) | 27.5 | 21.5 | 30.4 | 6.98 | 5.2 |  |  | 
NC1=NN(c2ccccc2)C2(c3ccncc3C(=O)O)C1C(N)=NN2c1ccccc1 (stereo not given) | > 100 | > 100 | > 100 | > 100 | > 100 |  |  | 
CC(C)/C(Cl)=N\OC(=O)Nc1ccc(F)c([N+](=O)[O-])c1 | 6.75 | 2.45 | 37.9 |  | 4.94 |  |  | 
CCN(CC)CCNc1ccc2ncn3c4c(OC)cccc4c(=O)c1c23 | 19.2 | 20.7 | 25.1 | > 100 |  |  |  | 
O=C1NC(N/N=C/c2ccccc2)=N/C1=C\c1cccs1 | 48.5 | 5.61 | 34.6 | > 100 | > 92.3 |  |  | 
CC(C)CCNC(=O)c1ccc(CNC(=O)/C=C/c2csc(-c3ccccc3)n2)cc1 | > 100 | > 100 | > 100 | > 100 | > 100 |  |  | 
c1cc2cc(c1)CN1CCNCCN(CCNCC1)Cc1cccc(c1)CN1CCNCCN(CCNCC1)C2 | > 100 |  | > 100 | > 100 | > 100 |  |  | 
CC1(C)O[C@H]2[C@@H]3N=C(c4ccccc4)O[C@@H]3C=C[C@H]2O1 | > 100 | 17.4 | > 100 | > 100 | > 100 |  |  | 
OCCCCn1cc(Cn2ncc3c(SCc4ccccc4)ncnc32)nn1 | > 100 | > 100 | > 100 | > 100 | 77.3 |  |  | 
O=C(Nc1ccccc1)Nn1c(-c2cccs2)nc2ccc(I)cc2c1=O | > 100 | 44.7 | 98.5 | 17.2 |  |  |  | 
CCCC(=O)/C=C/S/C=C/C(=O)CCC | 8.22 | 4.2 | 66.3 | > 100 |  |  |  | 
O=C1N(CN2CCOCC2)CN(CN2CCOCC2)C(=O)N1Cc1ccccc1 | 84.8 | 29 | > 100 | 77.1 | 39.3 |  |  | 
CN(C)CCCNC(=O)c1cc(NC(=O)c2cc(NC(=O)[C@H]3C[C@@H]3C(=O)Nc3cc(C(=O)Nc4cc(C(=O)NCCCN(C)C)n(C)c4)n(C)c3)cn2C)cn1C | > 100 | > 100 | > 100 |  | > 100 |  |  | 
c1nc(SSc2ncnc3nc[nH]c23)c2[nH]cnc2n1 | > 100 | > 100 | 43.7 | > 100 | > 40.4 |  |  | 

Structure (SMILES) | TGI (HCT-15 colon) [µM] | TGI (NCI-H522 lung) [µM] | TGI (SF-295 CNS) [µM] | TGI (T-47D breast) [µM] | TGI (MOLT-4 leukemia) [µM] | GI50 (NCI-H522 lung) [µM] | GI50 (T-47D breast) [µM] | GI50 (MOLT-4 leukemia) [µM]
CCN(CC)c1nc(N(C)C)c2ccc(OC)cc2n1 | > 100 | 30.3 | > 100 | 73.6 | 22.1 |  |  | 
Cc1nc(N)c(N2CCN(Cc3ccccc3)CC2)c(=O)[nH]1 | > 100 | > 100 | > 100 | > 100 | > 100 |  |  | 
O=C1c2ccccc2C(=O)c2c1oc(=O)c1ccccc21 | 7.5 | 9.73 | 7.41 | 13.9 | 12.5 |  |  | 
O/N=C1/CCCCCC1NO (stereo not given) | > 100 |  | > 100 | > 100 | > 100 |  |  | 
COc1ccc(/C=C(\C(=O)OCC(C)C)c2ccc(OC)c(OC)c2)cc1OC | > 100 | > 100 | > 100 | > 100 | > 100 |  |  | 
CC(=O)N1CC[N+](C)(CCCCN2c3ccccc3Sc3cc(N=[N+]=[N-])ccc32)CC1 | > 100 | > 100 | > 100 | > 100 | > 100 |  |  | 
CC1(C)CCCCCC(C)(CCCCCCCCCCCO)C1=O (stereo not given) | 29.7 | 31.1 | 29.6 | 29.8 | 46.3 |  |  | 
COc1ccc(C(=O)/C=C/c2ccc(OCC(=O)O)cc2)cc1 | > 100 | > 100 | > 100 | > 100 | > 100 |  |  | 
Fc1ccc(NCn2nc(COc3ccccc3Cl)n(/N=C/c3ccc(-c4ccc(Cl)cc4Cl)o3)c2=S)cc1Cl | > 100 | > 100 | > 100 | > 100 | 45.5 |  |  | 
CCOC(=O)NC(NNc1ccc([N+](=O)[O-])cc1[N+](=O)[O-])(C(F)(F)F)C(F)(F)F | > 100 | 77 | > 100 | > 100 | > 100 |  |  | 
Cc1cc(N(CCC#N)CCC#N)ccc1/C(N=Nc1ccccc1)=N\NC(=O)c1ccccc1 | 48 | 35.3 | > 100 | 49 | 64.5 |  |  | 
O=Cc1[nH]c(=O)[nH]c(=O)c1CCl | > 100 | > 100 | > 100 | > 100 | > 100 |  |  | 
C[C@@H]1OC(=O)C[C@H]2CC(=O)N(CCC3CN(S(=O)(=O)C(F)(F)F)c4ccc(Cc5ccc6c(c5)C(CCN5C[C@H]7[C@@H](CC(=O)O[C@H]7C)CC5=O)CN6S(=O)(=O)C(F)(F)F)cc43)C[C@@H]21 (stereo not given in full) | > 100 |  | > 100 | > 100 | > 100 |  |  | 
CC(=O)O[C@H]1[C@H](OC(C)=O)[C@@H](CN=[N+]=[N-])OCO[C@@H]1CN=[N+]=[N-] | > 100 | > 100 | > 100 | > 100 | > 100 |  |  | 
BrCCC[P+](c1ccccc1)(c1ccccc1)c1ccccc1 | > 100 | > 27.5 | > 100 | 36.5 | > 94.6 |  |  | 
C[N+](C)(C)C1(C(=O)[O-])CC1 | > 100 | > 100 | > 100 | > 100 | > 100 |  |  | 
COc1cc(C=Nc2ccc(S(N)(=O)=O)cc2)cc(OC)c1 | > 50 |  | > 50 | > 50 | > 50 |  |  | 
O=C1C=CC[C@H](/C=C/C[C@@H](O)C[C@H](O)/C=C/c2ccccc2)O1 | 23 | 18 | 29.8 | 33.3 | 39.6 |  |  | 
O=C(Nc1nncs1)NS(=O)(=O)n1cnc2ccccc21 | > 100 | > 100 | > 100 | > 100 | > 100 |  |  | 
COC1=CC(=O)c2c(O)ccc(O)c2C1=O | 6.91 | 26 | 4.35 | 41.3 | 44.3 |  |  | 
Clc1ccc2c(c1)CC1C[N+]3=C(CCCC3)C1=C2 (stereo not given) | > 100 | > 100 | > 100 | > 100 | > 100 |  |  | 

Structure (SMILES) | TGI (HCT-15 colon) [µM] | TGI (NCI-H522 lung) [µM] | TGI (SF-295 CNS) [µM] | TGI (T-47D breast) [µM] | TGI (MOLT-4 leukemia) [µM] | GI50 (NCI-H522 lung) [µM] | GI50 (T-47D breast) [µM] | GI50 (MOLT-4 leukemia) [µM]
CC(=O)OCC1OC(n2c3c(cc(C#N)c2=S)CCCCCC3)C(OC(C)=O)C(OC(C)=O)C1OC(C)=O (stereo not given) | > 100 | > 100 | > 100 | 30.4 | > 100 |  |  | 
COc1cc(C2c3[nH]c4ccc(F)cc4c3C[C@H]3COC(=O)N23)cc(OC)c1O (stereo not given in full) | 25.2 | 35.5 | 53.8 | > 100 | > 100 |  |  | 
CCOC(=O)/C=C(\C(=O)OCC)n1cnc2c(N)ncnc21 | 12.2 | 6.09 | 32.1 | 14 | 6.89 |  |  | 
COc1cc(-c2c3c([nH]c(=O)c2C#N)-c2cc([N+](=O)[O-])ccc2CCC3)cc(OC)c1OC | > 100 | 59 | 33.1 | > 100 | > 100 |  |  | 
Cc1nn(-c2ccccc2)c2c1C(c1cc3ccccc3nc1Cl)NC(=S)N2 (stereo not given) | > 100 | 69.5 | > 100 | > 100 | > 100 |  |  | 
O=c1c2ccccc2c2c1c1c3ccccc3c(=O)c1c1c3ccccc3c(=O)c21 | > 100 | > 100 | > 100 | > 100 | > 100 |  |  | 
c1ccc2c(c1)CCN1CCc3c([nH]c4ccccc34)C21 (stereo not given) | > 100 | 66 | 57.4 | > 100 | 70.6 |  |  | 
CC(=O)O[C@H]1[C@@H](OC2CCCC2(c2ccccc2)c2ccccc2)O[N+]([O-])=C[C@@]12COCc1cc3c(cc12)OCO3 (stereo not given in full) | 67 | 5.35 | > 25.9 | > 31.2 | > 22.9 |  |  | 
O=C(N/N=C/C=C/c1ccc([N+](=O)[O-])o1)c1ccc(Br)s1 | 35.7 |  | > 100 | 65.5 | > 100 |  |  | 
CC1C2(C)OC(=N)C(C#N)(C(c3ccco3)O2)C1(C#N)C#N (stereo not given) | 25 |  | > 100 | 45.9 | > 100 |  |  | 
COC(=O)c1cc(-c2ccc(-c3ccc(O)cc3)cc2)cc(-c2ccc(-c3ccc(O)cc3)cc2)c1 | 20.8 | 8.66 | 20.2 | 33.8 | 22.1 |  |  | 
O=c1oc2cc(O)ccc2cc1-c1nc2ccccc2s1 | > 100 |  | 89.3 | 95.7 | 17.4 |  |  | 
CNC(=O)c1n[nH]n(Cc2ccccc2)c1=S | > 100 |  | > 100 | > 100 | > 100 |  |  | 
O=C(O)CSc1nnc(CCCCCCCCc2nnc(SCC(=O)O)o2)o1 | > 100 | > 100 | > 100 | > 100 | > 100 |  |  | 
COc1ccc(N2CCN(Cc3c(C(C)=O)[n+](=O)c4ccccc4n3[O-])CC2)cc1 | > 100 | > 100 | > 100 | > 100 |  |  |  | 
O=C1/C(=C/c2ccc(Cl)cc2)N=C(c2ccccc2)N1C1Nc2cc3c(cc2S1)NC(N1C(=O)/C(=C/c2ccc(Cl)cc2)N=C1c1ccccc1)S3 (stereo not given) | > 100 | 63.3 | > 100 | > 100 | > 100 |  |  | 
NC(N)=NS(=O)(=O)c1ccc(Nc2c3ccccc3nc3c(C(=O)NC(CO)(CO)CO)cccc23)cc1 | > 100 | 30.9 | > 100 | > 100 | > 100 |  |  | 
COc1cc(CNC(=O)[C@H](Cc2ccc(O)cn2)NC(C)=O)cc(OC)c1 | > 100 | > 100 | > 100 | > 100 | > 100 |  |  | 
COc1ccc(N=Nc2c(C)c(C#N)c(=S)n(C3OC(COC(C)=O)C(OC(C)=O)C(OC(C)=O)C3OC(C)=O)c2-c2ccccc2)cc1 (stereo not given) | 77.2 |  | 82.1 | 41.2 | 47.9 |  |  | 
CC(=O)Nc1ccc(S(=O)(=O)[N-]C2C(=O)c3ccccc3C(=O)C2[n+]2ccccc2)cc1 (stereo not given) | > 100 | 92.7 | 28.8 | > 100 | 47.2 |  |  | 
CCCN1CN(c2ccccc2)C2(CCN(CCCC(=O)c3ccc(F)cc3)CC2)C1=O | 16.9 | 43.6 | 24.8 | 35 | 15.5 |  |  | 
